The record followed here is US6458828B1, “Deodorants, foods and beverages, and oral compositions as well as toiletry products” (Lotte Co., Ltd., priority 1999, dated 2002).

A short description of assay [1]: Test 1 deodorizing effect test (head-space gas chromatography, pH 7.5). The note with it: reduction ratio of methylmercaptan vs sample-free system; sample 7.5 mg/ml, pH 7.5, 25 ppm sodium methylmercaptan, 30 minutes at 37° C. As for the experimental part: After 1.0 ml of the sample solution and 0.5 ml of 25 ppm sodium methylmercaptan was added in a vial to shake the same for 30 minutes at 37° C., and then 200 μl of a vapor phase component in the vial was gathered. An amount of formed methylmercaptan was measured by the gas chromatography to compare the same with a sample-free system, thereby to find a reduction ratio of methylmercaptan as a deodorizing coefficient. […] The gas chromatography uses “GC-9A” commercially available from Shimazu Manufacturing Co., Ltd. The measuring conditions were described below. [table]

Assay [2] is described as follows: Deodorizing activity by head-space method using gas chromatography (general statements). The source says:
The resent inventors have researched on various materials to discover the effective deodorant in the head-space method using a gas chromatography.

The nature of assay [3]: Gas chromatography analysis of sulfides with caramels and maltols. Conditions: garlic and onion odor ingredients. As to the method:
Also, in Japanese laid-open publication 62-169720, it is also disclosed that caramels and maltols (3-hydroxy-2-methyl-γ-pyrone) obtained from heating sucrose or glucose show deodorizing effect against garlic and onion odors. If, however, the odor composition was analyzed by a gas chromatography, then no change in odor composition was observed.

Assay [4] is described as follows: Test 3 deodorizing effect test against ammonia (Kitagawa detecting tube). The note with it: 50 mg sample in 1.96 ml water, 40 μl ammonia solution (0.28%), 5 minutes at 37° C. As to the method:
Each of 50 mg of the palatinose-derived thermal decomposition of Example 1 and sodium copper chlorophyllin was dissolved into 1.96 ml of water in 100 ml of the vial respectively. Then, 40 μl of an ammonia solution (0.28%) was added and shaken for 5 minutes at 37° C. and 100 ml of the vapor phase component in the vial was measured under a vacuum pressure by use of a Kitagawa detecting tube (ammonia No.3). The deodorizing rate of each sample was calculated from the concentration of ammonia in case of addition of no sample.

Consider `OC[C@H]1O[C@H](OC[C@H]2OC(O)(CO)[C@@H](O)[C@@H]2O)[C@H](O)[C@@H](O)[C@@H]1O` (some centres unmarked) [Palatinose, palatinose], for which the “Deodorant coefficient (%)” value in assay [1] came out at 0.0%. Further, the “deodorizing activity / effect against methyl mercaptan (in words)” value in assay [2] is “does not provide such the effect”.

For the compound `Cc1occc(=O)c1O` [maltols, 3-hydroxy-2-methyl-γ-pyrone], the “change in composition of sulfides (methyl marcaptan, allyl marcaptan) by gas chromatography” value in assay [3] was “no change in the composition was observed”.

For the compound sodium copper chlorophyllin, in assay [4], the “Rate of deodorizing (%)” value came out at 9.2%.

Consider `OC[C@H]1O[C@@](CO)(O[C@H]2O[C@H](CO)[C@@H](O)[C@H](O)[C@H]2O)[C@@H](O)[C@@H]1O` [Sucrose, sucrose], for which the “Deodorant coefficient (%)” value in assay [1] is reported as 0.0%.
